Columns and labels:
[1] = system: patients with idiopathic RLS; conditions: continuous treatment over 6 months or more
Procedure: The severity of the symptoms was determined by means of the difference between the time of randomisation after 6 months and the results after the end of the trial, according to the international RLS scale. The results of 147 patients were evaluated.

RLS = conditions: open trials
[2] = system: patients suffering from moderate to severe RLS
Description: The expression moderate to severe RLS is used when patients reach a points score of >15 on the international RLS scale. The scale runs from 0 (no RLS symptoms) to 40 (severest form of RLS). Thus, in moderate to severe RLS, the symptoms usually occur more than twice a week.

`CCCNC1CCc2nc(N)sc2C1.Cl.Cl` (stereo not drawn) [pramipexole, 2-amino-6-n-propylamino-4,5,6,7-tetrahydrobenzo-thiazole dihydrochloride] was tested, and the “effect of continuous treatment on RLS symptoms” value [1] was “lasting improvement in the RLS symptoms”, the “persistence of lasting clinical effects” value (RLS) was at least 12 months and the “patient-reported improvement in symptoms (quality of sleep, restlessness of the legs, etc.)” value ([2]; after only one week of treatment) was “significant improvements in all areas of symptoms”. The “subjective impression of treated patients” value ([2]; majority of treated patients) was “great or very great improvement”, the “improvement in the RLS symptoms” value ([2]; patients with moderate to severe RLS (>15 points on international RLS scale)) was “rapid improvement in the RLS symptoms” and the “duration of improvement in the symptoms in RLS patients (lasting effect)” value ([2]; pramipexole administered continuously) was “at least 6 months”.

Source: patent publication US20080262053A1 (priority 2005, published 2008)
